Measured values from paper PMC6602202, “Enteroendocrine peptides regulate feeding behavior via controlling intestinal contraction of the silkworm Bombyx mori” (PLoS ONE, 2019).

How the values were obtained:
[1] = system: foregut of Helicoverpa armigera; conditions: cited from earlier work
Description: (§1) AT-producing EEs (Fig 2C and 2D) and GSRYamide-producing EEs (Fig 2E and 2F) also have the potential to deliver secretory granules containing peptidyl factors to the hemocoel side through a cellular membrane. Those EEs have similar cellular morphology to EEs releasing other arthropod neuropeptide CCAP (Crustacean cardioactive peptide) observed in the American cockroac ...

[2] = system: foregut of Lacanobia oleracea; conditions: cited from earlier work
Description: as §1

B. mori larvae [3] = conditions: cited from earlier work
Description: Among the feeding regulatory peptides in insects, several peptides are known as ‘brain-gut peptides’, which are expressed and produced in the brain and intestinal organs. […] These peptides may regulate not only the physiological functions related to digestion and intestinal lipid metabolisms but also the intestin ... || The myoinhibitory activities of AT and GSRYa-1 and -2 in the foregut (pharynx and esophagus) and hindgut (ileum) (Figs 5E, 5F and 6E) seem to be linked to the delay in feeding initiation in B. mori larvae (Figs 1D and 6B).

D. melanogaster [4] = conditions: cited from earlier work
Description: (§2) The myoinhibitory activities of AT and GSRYa-1 and -2 in the foregut (pharynx and esophagus) and hindgut (ileum) (Figs 5E, 5F and 6E) seem to be linked to the delay in feeding initiation in B. mori larvae (Figs 1D and 6B).

Schistocerca. gregaria = conditions: cited from earlier work
B. mori larvae [5] = assay: Feeding behavioral assay (latency to first bite), 2-day-old fifth-instar larvae; format: in vivo, Bombyx mori; conditions: 100 μL injected dorsolaterally into the hemolymph, after 16 h diet deprivation, n = 3
Description: A part of the eluents of the fractions from RP-HPLC as well as synthetic peptide solutions was evaporated to dryness and dissolved in 100 μL distilled water just prior to the bioassay. The feeding cycles of 2-day-old fifth-instar B. mori larvae were synchronized by diet deprivation for 16 h. After diet deprivation, the larvae were anesthetized by submerging in icy water for 15 min. Then, 100 μL sample was injected dorsolaterally into the hemolymph. After injection, the larvae were placed in front of artificial diet blocks, and then the latency to their first bites as the initiation of feeding (first bite) after sample-injection was measured as reported previously. Statistical analysis was performed using a one-way analysis of variance (one-way ANOVA), then a post hoc Dunnett’s test. Reproducibility was confirmed at least twice by assays using different populations of larvae.

BNGR-A5 = assay: aequorin-based bioluminescent calcium assay, CHO cells expressing BNGR-A5; format: cell-based, Bombyx mori; conditions: aequorin luminescence 20 s, triplicates, three experiments
Description: (§3) Activity of the BNGR-A5 and -16 receptors were analyzed using Chinese hamster ovary (CHO) cells transiently transfected with plasmids for expression of each BNGR, calcium-sensitive reporter aequorin and chimeric G protein that couple with receptor activation to an intracellular Ca^2+-increase independent of the endogenous receptor signaling cascade. The entire open reading frames of BNGR-A5 and -16 were cloned into pcDNA3.1(+) vector (Invitrogen) with a Kozak translation initiation sequence incorporated at 5´end. Plasmids for codon optimized aequorin and chimeric G proteins were used as described previously. […]
(§4) The transfected cells were detached using PBS supplemented with 0.2% EDTA and rinsed of the culture plates with the assay medium—phenol red free DMEM/F12 with L-glutamine and 15 mM HEPES (PAN Biotech, Wimborne, Dorset, UK), 0.1% BSA (Sigma-Aldrich Co. LLC.) and 1% penicillin/streptomycin (Life Technologies). […] Emitted luminescence signal corresponding to the ligand-induced intracellular Ca^2+ release was recorded for 20 s using the GloMax-Multi+ Detection System (Promega). […]

BNGR-A16 [6] = assay: aequorin-based bioluminescent calcium assay, CHO cells expressing BNGR-A16; format: cell-based, Bombyx mori; conditions: aequorin luminescence 20 s, triplicates, three experiments
Description: as §3, §4

pharynx = assay: Spontaneous contraction of the pharynx in dissected open larvae; design: species or system Bombyx mori; conditions: 10^−9–10^−5 M, 27°C, n = 5
Description: (§5) The opened head and abdominal portion of 2-day-old fifth-instar larvae (fed ad libitum and non-fed for 16 h) were washed twice with B. mori Ringer’s solution and incubated for 3 min at 27°C to stabilize the movement. After incubation, the contractile movements of the larval foregut and hindgut, particularly the spontaneous contraction of the pharynx and ileum (predominantly contracting area in hindgut) were observed and recorded using a digital microscope USB2.0 DigiScope II v2^TM (CHRONOS, Taipei, Taiwan). 100 μL of B. mori Ringer’s solution was added to the examined gut at 60 s after starting recording. Furthermore, 100 μL of B. mori Ringer’s solution (vehicle control) and 100 μL peptide-containing solution (10^−9–10^−5 M of peptides dissolved in B. mori Ringer’s solution) were exposed over gut at 120 s after a recording start. The contractile movements were analyzed using ImageJ software (https://imagej.net/Fiji) with the Optic flow plug-in (Gaussian window MSE). […] The position of the lines used for the kymograph analyses (x-y, z-w) were determined by Optic flow analyses. The waveform of the kymographs, corresponding to the visible contractions in the recorded movies, were quantified and converted to myograms. […] Invisible contractions in the recorded movie and extremely small amplitudes in the myograms were considered as no significant contractions. […]

ileum = assay: Spontaneous contraction of the ileum in dissected open larvae; design: species or system Bombyx mori
Description: The opened head and abdominal portion of 2-day-old fifth-instar larvae (fed ad libitum and non-fed for 16 h) were washed twice with B. mori Ringer’s solution and incubated for 3 min at 27°C to stabilize the movement. After incubation, the contractile movements of the larval foregut and hindgut, particularly the spontaneous contraction of the pharynx and ileum (predominantly contracting area in hindgut) were observed and recorded using a digital microscope USB2.0 DigiScope II v2^TM (CHRONOS, Taipei, Taiwan). 100 μL of B. mori Ringer’s solution was added to the examined gut at 60 s after starting recording. Furthermore, 100 μL of B. mori Ringer’s solution (vehicle control) and 100 μL peptide-containing solution (10^−9–10^−5 M of peptides dissolved in B. mori Ringer’s solution) were exposed over gut at 120 s after a recording start. The contractile movements were analyzed using ImageJ software (https://imagej.net/Fiji) with the Optic flow plug-in (Gaussian window MSE). The direction of contractile movement was represented by the color and arrows described in the ‘Direction’ map. The position of the lines used for the kymograph analyses (x-y, z-w) were determined by Optic flow analyses. The waveform of the kymographs, corresponding to the visible contractions in the recorded movies, were quantified and converted to myograms. The number of contractions in 60 s was defined as the ‘contraction frequency’. Invisible contractions in the recorded movie and extremely small amplitudes in the myograms were considered as no significant contractions. The evaluation of visible contraction was defined by giving a threshold at the half length of the observed amplitude. The effect of synthetic peptides was represented by the ratio of the ‘contraction frequency’ at 60–120 s to 120–180 s (%) due to the extendedly various frequencies by individuality; the pharynx (30-40/60s) and hindgut (20-40/60s). This methodology by kymograph is substantially corresponding to the previously used assays for intestinal contraction. […]

foregut and hindgut = assay: Wash-out of contraction inhibition, isolated gut; design: species or system Bombyx mori; conditions: washing with the vehicle without the ligands
Description: as §5

esophagus = assay: Esophageal contraction in intact transparent larvae; format: in vivo, Bombyx mori
Description: Transparent larvae were prepared by feeding an artificial diet containing 0.05% melamine (Wako Pure Chemical Industries) starting from 0-day-old fifth-instar larvae. […] The visible effect took place in 2-day-old fifth-instar larvae compared to normally fed larvae. The feeding behavioral assay of transparent larva was performed in the same way as that of normal larvae. Each transparent larva was surrounded with a soft sponge and held with both sides by two slide glasses. Transmitted light enabled to illuminate the shape and movement of the shadowed esophagus portion. The contraction of foregut, particularly ‘forward contraction wave’ and ‘peristaltic squeeze’ at the esophagus were observed using a digital microscope to measure the number of contractions per minute. The ‘peristaltic squeezes’ at 8 h and 16 h in non-fed larvae were unmeasurable because of the limit of detection in our observation using digital microscope. 100 μL of distilled water (vehicle control) and 100 μL peptide-containing solution (10^−7–10^−4 M of peptides dissolved in distilled water) were injected dorsolaterally into the hemolymph. After injection, the numbers of contractions per minute of the esophagus were counted from the data of 3 min observation. Statistical analysis was performed using a one-way ANOVA, then a post hoc Dunnett’s test. Reproducibility was confirmed at least twice by assay using different populations of larvae.

BNGR-A16 [7] = conditions: cited from earlier work
intestinal contractions = conditions: cited from earlier work
Description: as §2

[8] = system: foregut, midgut and hindgut; conditions: other insect species; 48 (foregut), 27, 49 (midgut), 50, 51 (hindgut); cited from earlier work
Description: AT was originally isolated from extracts of heads of pharate adult tobacco hornworm, Manduca sexta as an allatoregulatory peptide. […] Consistently, it is possible in other insect species that ...

gut = conditions: Periplaneta americana; cited from earlier work
Description: as §1

D. melanogaster [9] = conditions: cited from earlier work; remark: listed apart in the source
Description: Peptides having C-terminal RYamide sequences constitute a neuropeptide Y (NPY) family, which is conserved both in vertebrates and invertebrate.

[10] = system: hindgut of Leucophaea maderae; conditions: cited from earlier work
Description: as §1

[11] = 10^−7–10^−4 M, 100 μL injected dorsolaterally, fed ad libitum transparent larvae, counted over 3 min, P < 0.05, n = 5

## allatostatin [AST, reference compound]
[1]
  effect on spontaneous contraction of the foregut, H. armigera: regulate spontaneous contraction of the foregut
[2]
  effect on spontaneous contraction of the foregut, L. oleracea: regulate spontaneous contraction of the foregut

## short neuropeptide F [sNPF]
B. mori larvae [3]
  effect on feeding initiation, peptides: feeding acceleratory effect
D. melanogaster [4]
  effect on food intake and body weight: stimulates food intake and body weight gain
Schistocerca. gregaria
  effect on food intake: an inhibitory effect on food intake

## tachykinin-related peptides [B. mori TRPs]
B. mori larvae [3]
  effect on feeding initiation, peptides: feeding acceleratory effects that can shorten the latency to the initiation of feeding

## allatotropin
B. mori larvae [5]; significant by one-way ANOVA (P < 0.01)
  effect on latency to the first bite, synthetic peptides: prolonged the latency to the first bite in a dose-dependent manner
B. mori larvae [5]; synthetic peptides
  ED50, prolongation of the latency to the first bite: 1000 nM
BNGR-A5
  affinity, BNGR-A5: much higher affinity to AT than BNGR-A16
BNGR-A16 [6]
  response, BNGR-A16: response of BNGR-A5 (Fig 3 an arrow) as well as BNGR-A16 to AT
pharynx; larvae fed ad libitum, 60–120 s vs 120–180 s
  relative frequency of contraction, pharynx, fed ad libitum: decreased relative frequency of contraction
pharynx; larvae non-fed for 16 h
  relative frequency of contraction, pharynx, non-fed: decreased the frequency
ileum; 10^−6 M exposed at 120 s, larvae fed ad libitum
  contraction of ileum (movie): the contraction of ileum was inhibited
ileum; larvae fed ad libitum, 10^−9–10^−5 M, 27°C, 60–120 s vs 120–180 s, n = 5
  relative frequency of contraction, ileum, fed ad libitum: decreased relative frequency of contraction
ileum; larvae non-fed for 16 h, 10^−9–10^−5 M, 27°C, n = 5
  relative frequency of contraction, ileum, non-fed: decreased the frequency
Foregut and hindgut
  reversibility of inhibition on washing: did not resume even after washing
esophagus; 10^−5 M solution injected dorsolaterally into the hemolymph
  forward contraction wave and peristaltic squeeze (movie): the forward contraction wave and peristaltic squeeze were inhibited
esophagus; [11]
  number of forward contraction waves: decreased numbers of forward contraction waves and peristaltic squeezes in a dose-response manner
  number of peristaltic squeezes: decreased numbers of forward contraction waves and peristaltic squeezes in a dose-response manner
BNGR-A16 [7]
  AT receptor assignment: the AT receptor is assigned to be BNGR-A16
Intestinal contractions
  effect on intestinal contractions, other Lepidopteran species: stimulatory effect
[8]
  myoregulatory activity on foregut, midgut and hindgut: myoregulatory activities
[1]
  effect on spontaneous contraction of the foregut, H. armigera: regulate spontaneous contraction of the foregut
[2]
  effect on spontaneous contraction of the foregut, L. oleracea: regulate spontaneous contraction of the foregut

## Crustacean cardioactive peptide [CCAP]
gut
  effect on gut contraction: multiple roles, including gut contraction

## neuropeptide F [NPF]
D. melanogaster [9]
  effect on larval feeding behavior: regulate larval feeding behavior

## myosuppressin (leukomyosuppressin)
[2]
  effect on spontaneous contraction of the foregut, L. oleracea: regulates spontaneous contraction of the foregut
[10]
  effect on spontaneous contraction of the hindgut, L. maderae: regulates spontaneous contraction of the foregut of Lacanobia oleracea [66] and the hindgut of Leucophaea maderae

## short neuropeptide F (sNPF) -2 [sNPF-2]
B. mori larvae [3]
  effect on feeding initiation, peptides: feeding acceleratory effects that can shorten the latency to the initiation of feeding
